Laboratory results reported in paper PMC9865645, “The Impact of N^ε-Acryloyllysine Piperazides on the Conformational Dynamics of Transglutaminase 2” (International Journal of Molecular Sciences, 2023).

Target: T1, self-produced hTGase 2 (Homo sapiens, UniProt P21980)
T1 construct: thrombin cleavage site (N); made in house; host or cells: E. coli BL21(DE3)
T1 sequence (P21980 1-687): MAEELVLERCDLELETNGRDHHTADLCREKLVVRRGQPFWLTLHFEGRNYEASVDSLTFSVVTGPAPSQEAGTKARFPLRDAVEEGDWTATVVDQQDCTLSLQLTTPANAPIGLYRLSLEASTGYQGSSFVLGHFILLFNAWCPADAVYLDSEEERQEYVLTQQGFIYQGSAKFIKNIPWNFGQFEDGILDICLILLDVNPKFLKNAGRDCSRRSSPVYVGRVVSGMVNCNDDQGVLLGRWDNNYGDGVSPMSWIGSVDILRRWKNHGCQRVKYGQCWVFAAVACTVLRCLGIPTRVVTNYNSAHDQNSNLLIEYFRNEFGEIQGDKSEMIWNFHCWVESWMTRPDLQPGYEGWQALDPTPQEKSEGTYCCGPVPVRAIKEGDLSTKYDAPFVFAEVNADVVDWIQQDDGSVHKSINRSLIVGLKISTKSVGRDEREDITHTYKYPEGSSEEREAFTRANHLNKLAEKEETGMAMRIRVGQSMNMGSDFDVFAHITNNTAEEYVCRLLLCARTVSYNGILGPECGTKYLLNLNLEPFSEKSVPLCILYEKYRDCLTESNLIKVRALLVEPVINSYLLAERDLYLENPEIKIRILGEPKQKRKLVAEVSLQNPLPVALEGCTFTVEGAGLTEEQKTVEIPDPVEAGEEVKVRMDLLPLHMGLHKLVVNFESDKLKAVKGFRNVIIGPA
Experiment: native (GTP-)PAGE: conformational species of hTGase 2
Conditions: pre-incubation with 500 µM GTPγS
Description: Figure 7 Influence of inhibitors 1–3 on the activity and conformation of hTGase 2 in the absence and presence of Ca^2+ or/and GTPγS. Native (GTP-)PAGE was performed on 7% separating gels. The gel and the running buffer contained either no GTP (A) or 50 µM GTP (B). Samples of 8.23 µM self-produced hTGase 2 were incubated for 30 min at 20 °C in 100 mM MOPS pH 8.0, 100 mM NaCl, 5.33% (v/v) glycerol with CaCl2, DMSO or inhibitors 1–3 (2.12% DMSO), and GTPγS as indicated. After adding native loading buffer, 6 µL of each sample containing 3 µg of hTGase 2 was loaded onto the gel. After the electrophoretic separation, gels were stained with Coomassie Brilliant Blue G250, scanned, and the protein bands were quantified (Figure S6 in Supplementary Materials). […]
Sodium dodecyl sulfate-PAGE (SDS-PAGE) and native PAGE were performed on 4% stacking and 7% separating gels using Laemmli buffers (60 min with 120 V, 300 mA and 30 W at room temperature) and the same buffers without SDS (80 min with 120 V, 50 mA and 30 W at 4 °C), respectively. […] Afterward, the gels were scanned using a LI-COR Odyssey Fc Imager (700 channel) and analyzed using Image Studio software version 5.2.5. Detected bands were quantified based on the general procedure published by Wagstaff et al. and as detailed in legends to Figures S5 and S6. […]

`Nc1nc2c(ncn2[C@@H]2O[C@H](COP(=O)(O)OP(=O)(O)OP(O)(O)=S)[C@@H](O)[C@H]2O)c(=O)[nH]1` [GTPγS] was tested, and the “effect on migrating hTGase 2 species” value was “favors the fast migrating hTGase 2 species”.
